From the NIST ThermoML archive (doi:10.1016/j.jct.2012.07.007)

How the values were obtained:
[1] = xn = mol fraction of the nth substance listed; settings: 101 kPa, Liquid; for speed of sound: Linear variable-path acoustic interferometer; for mass density: Vibrating tube method
[2] = excess molar enthalpy (molar enthalpy of mixing); xn = mol fraction of the nth substance listed; settings: 298.15 K, 101 kPa, Liquid, 2-drop calorimetry

Cc1ccccn1 [2-methylpyridine] + CCn1cc[n+](C)c1.F[B-](F)(F)F
[1]
Settings	mass density, 293.15 K [kg/m3]	mass density, 298.15 K [kg/m3]	mass density, 303.15 K [kg/m3]	mass density, 308.15 K [kg/m3]	speed of sound, 293.15 K [m/s]	speed of sound, 298.15 K [m/s]	speed of sound, 303.15 K [m/s]	speed of sound, 308.15 K [m/s]
x2 = 0.1219	1013.9	1010.93	1006.33	1002.14	1438.3	1415.5	1397.7	1379.6
x2 = 0.1776	1043.45	1040.53	1036.16	1032.07	1457.5	1434.8	1417.2	1400
x2 = 0.2341	1071.82	1068.69	1064.53	1060.5	1478.2	1454.8	1438.3	1422
x2 = 0.2778	1092.45	1089.12	1085.1	1081.18	1494.2	1471	1454.4	1439.1
x2 = 0.3209	1111.76	1108.07	1104.33	1100.37	1509.3	1487.7	1470.8	1455.6
x2 = 0.3721	1133.09	1129.16	1125.57	1121.65	1527.3	1506.4	1490.5	1475.5
x2 = 0.4232	1152.77	1148.64	1145.21	1141.21	1544.8	1525.5	1509	1495
x2 = 0.4727	1170.31	1166.05	1162.72	1158.68	1560	1542.7	1525.2	1513.6
x2 = 0.5217	1186.07	1181.95	1178.63	1174.56	1572.9	1557.7	1540.6	1530.3
x2 = 0.5742	1201.42	1197.47	1194.21	1190.05	1585.5	1572.9	1555.3	1545.9
x2 = 0.6217	1214.02	1210.21	1206.93	1202.85	1595.6	1585	1567.5	1559
x2 = 0.6724	1226.14	1222.71	1219.36	1215.15	1603.9	1596.5	1577.8	1571.1
x2 = 0.7228	1236.96	1233.88	1230.44	1226.27	1609.8	1605.1	1586.2	1581.5
x2 = 0.7725	1246.69	1243.95	1240.41	1236.19	1614.7	1611.1	1592.1	1589
x2 = 0.8216	1255.54	1252.96	1249.32	1245.1	1618.6	1615.5	1596.9	1593.8
x2 = 0.8741	1264.27	1261.73	1257.98	1253.82	1621.8	1618.7	1600.8	1597.4
x2 = 0.9218	1271.82	1269.01	1265.26	1261.08	1624.6	1619.8	1603.5	1598.2
x2 = 0.9319	1273.41	1270.5	1266.74	1262.57	1625.3	1619.6	1604	1598.3

[2]
Settings	excess molar enthalpy [kJ/mol]
x2 = 0.1132	-0.109
x2 = 0.1578	-0.148
x2 = 0.2087	-0.194
x2 = 0.2467	-0.225
x2 = 0.2976	-0.266
x2 = 0.3245	-0.286
x2 = 0.3789	-0.326
x2 = 0.4235	-0.356
x2 = 0.4876	-0.395
x2 = 0.5123	-0.408
x2 = 0.5734	-0.437
x2 = 0.6145	-0.448
x2 = 0.6634	-0.453
x2 = 0.7145	-0.436
x2 = 0.7856	-0.399
x2 = 0.8265	-0.36
x2 = 0.8723	-0.304
x2 = 0.9226	-0.209

c1ccncc1 [pyridine] + CCn1cc[n+](C)c1.F[B-](F)(F)F
[1]
Settings	mass density, 293.15 K [kg/m3]	mass density, 298.15 K [kg/m3]	mass density, 303.15 K [kg/m3]	mass density, 308.15 K [kg/m3]	speed of sound, 293.15 K [m/s]	speed of sound, 298.15 K [m/s]	speed of sound, 303.15 K [m/s]	speed of sound, 308.15 K [m/s]
x2 = 0.1225	1057.86	1053.89	1049.31	1044.82	1486.4	1466.7	1450.1	1431.5
x2 = 0.1781	1085.74	1081.91	1077.49	1073.08	1504.8	1486.7	1470.9	1453.6
x2 = 0.2349	1111.05	1107.24	1102.93	1098.58	1521.5	1505.5	1489.4	1473.3
x2 = 0.2787	1128.56	1124.75	1120.49	1116.15	1533.4	1517.7	1502.2	1487.6
x2 = 0.3215	1144.24	1140.37	1136.25	1131.85	1544	1528.8	1513.9	1499.2
x2 = 0.3716	1160.99	1156.91	1152.96	1148.63	1555.6	1541.1	1525	1512.2
x2 = 0.4229	1176.47	1172.38	1168.48	1164.16	1565.7	1550.9	1536.1	1523.5
x2 = 0.4723	1189.98	1185.87	1182.12	1177.75	1574	1560.4	1544.5	1533.1
x2 = 0.5213	1202.28	1198.15	1194.47	1190.17	1582.4	1568.3	1552.8	1541.1
x2 = 0.5731	1214.14	1209.97	1206.44	1202.2	1589.6	1575.5	1561.4	1549.5
x2 = 0.6212	1224.23	1220.11	1216.67	1212.48	1596.2	1582.6	1568.1	1557.4
x2 = 0.6719	1234.08	1230	1226.63	1222.55	1603.2	1589.2	1575.5	1564.3
x2 = 0.7224	1243.17	1239.16	1235.85	1231.85	1609.3	1595.2	1583.1	1571.5
x2 = 0.7737	1251.76	1247.81	1244.54	1240.61	1615.2	1601.3	1589.7	1578.5
x2 = 0.8219	1259.31	1255.42	1252.16	1248.26	1619.9	1607	1595.8	1584.8
x2 = 0.8764	1267.33	1263.49	1260.17	1256.28	1625.1	1612.2	1602	1590.5
x2 = 0.9223	1273.71	1269.86	1266.47	1262.53	1628.2	1616	1605.5	1594
x2 = 0.9349	1275.41	1271.55	1268.13	1264.16	1628.9	1616.8	1606.2	1594.8

[2]
Settings	excess molar enthalpy [kJ/mol]
x2 = 0.1025	-0.147
x2 = 0.1335	-0.188
x2 = 0.1727	-0.232
x2 = 0.2121	-0.28
x2 = 0.2654	-0.328
x2 = 0.3078	-0.364
x2 = 0.3587	-0.405
x2 = 0.4112	-0.424
x2 = 0.4632	-0.448
x2 = 0.4956	-0.453
x2 = 0.5325	-0.453
x2 = 0.589	-0.443
x2 = 0.6312	-0.42
x2 = 0.6983	-0.381
x2 = 0.7567	-0.337
x2 = 0.8078	-0.279
x2 = 0.8654	-0.211
x2 = 0.9123	-0.144
